This is an account of results in the supplement of paper PMC11208160.
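Note: IS621 bridge recombinase in Escherichia coli cells against a fixed T5 target plasmid.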

A short description of this series: recombinant UMI read abundance after kanamycin selection (control-corrected) (log10(CPM+1)); higher = more efficient recombination; extreme values may be limits of the assay; sequences stand for … in AGTGCAGAGAAAATCGGCCAGTTTTCTCTGCCTGCAGTCCGCATGCCGTGGGACCCCTTGGGTTCTAACCTGTTGCCTAGATTTATGCAGCGGACTGCCTTTCTCCCAAAGTGATAAACCGG…AGGTTGGTTTCACT; site = the 11-nt donor. In outline:
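Sequenced counts of recombinant UMIs were turned into CPM, averaged across replicates and scaled with control-derived factors. The reported figure is log10(CPM+1). Those UMIs, each 12 nt long, tagged donor and donor-binding-loop pairs on a plasmid with a promoterless kanamycin gene, screened as a pool in Escherichia coli with IPTG (0.07 mM) plus kanamycin or without selection.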
As for “GTATGCACATGGACCGGTTTTCCCGGTAATCCGTATTTGAA (site GTATGCACTTG)”, the “recombinant UMI read abundance (log10)” value was determined as 0.0145.
In the case of “GTATGCACATGGACCGGTTTTCCCGGTAATCCGTATTTGAA (site GTATGCACTTT)”, the “recombinant UMI read abundance (log10)” value worked out at 1.53.
As to “GTATGCGCATGGACCGGTTTTCCCGGTAATCCGTATTTGAA (site GTATGCGCTTT)”, the “recombinant UMI read abundance (log10)” value worked out at 1.66.
The same measure for “GTATGCGCATGGACCGGTTTTCCCGGTAATCCGTATTTGTA (site GTATGCACTTA)”: 1.8; for “GTATGCGCATGGACCGGTTTTCCCGGTAATCCGTATTTGTA (site GTATGCCCTTA)”: 0.772; for “GTATGCGCATGGACCGGTTTTCCCGGTAATCCGTATTTGTA (site GTATGCGCTTA)”: 2.35.
Next, “GTATGCGCATGGACCGGTTTTCCCGGTAATCCGTATTTGTA (site GTATGCTCTTA)”: 1.33.
Next, “GTATGGACATGGACCGGTTTTCCCGGTAATCCGTATTTGTA (site GTATGAACTTA)”: 2.39; “GTATGGACATGGACCGGTTTTCCCGGTAATCCGTATTTGTA (site GTATGCACTTA)”: 0.0152; “GTATGGACATGGACCGGTTTTCCCGGTAATCCGTATTTGTA (site GTATGGACTTA)”: 1.9.
Take “GTATGGACATGGACCGGTTTTCCCGGTAATCCGTATTTGTA (site GTATGTACTTA)”: the “recombinant UMI read abundance (log10)” value was 0.44.
The same measure for “GTCACAACATGGACCGGTTTTCCCGGTAATCCGTATTTGAC (site GTCACAACTGT)”: 1.36.
The same measure for “GTCACGACATGGACCGGTTTTCCCGGTAATCCGTATTTGAC (site GTCACGACTGT)”: 1.96; for “GTCAGAACATGGACCGGTTTTCCCGGTAATCCGTATTTGAT (site GTCAGAACTAT)”: 2.16.
The same measure for “GTCAGACCATGGACCGGTTTTCCCGGTAATCCGTATTTGGT (site GTCAGACCTAC)”: 0.
With “GTCCAAGCATGGACCGGTTTTCCCGGTAATCCGTATTTGAG (site ATCCAAGCTCT)”, the “recombinant UMI read abundance (log10)” value is 0.677.
The same measure for “GTCCAAGCATGGACCGGTTTTCCCGGTAATCCGTATTTGAG (site CTCCAAGCTCT)”: 0.
The same measure for “GTCCAAGCATGGACCGGTTTTCCCGGTAATCCGTATTTGAG (site GTCCAAGCTCT)”: 0.618; for “GTCCAAGCATGGACCGGTTTTCCCGGTAATCCGTATTTGAG (site TTCCAAGCTCT)”: 0.088.
For the sequence “GTCCACCCATGGACCGGTTTTCCCGGTAATCCGTATTTGTT (site GACCACCCTAA)”, the “recombinant UMI read abundance (log10)” value was found to be 0.0143.
The same measure for “GTCCACCCATGGACCGGTTTTCCCGGTAATCCGTATTTGTT (site GCCCACCCTAA)”: 0.0129; for “GTCCACCCATGGACCGGTTTTCCCGGTAATCCGTATTTGTT (site GGCCACCCTAA)”: 0.0212; for “GTCCACCCATGGACCGGTTTTCCCGGTAATCCGTATTTGTT (site GTCCACCCTAA)”: 0.0175.
Turning to “GTCCATTCATGGACCGGTTTTCCCGGTAATCCGTATTTGCT (site GTCCATTCTAG)”, the “recombinant UMI read abundance (log10)” value was 0.671.
Next, “GTCCCCGCATGGACCGGTTTTCCCGGTAATCCGTATTTGAG (site GTCCCCGCTCT)”: 0.468.
Next, “GTCCCGTCATGGACCGGTTTTCCCGGTAATCCGTATTTGGT (site GTCCCGTCTAC)”: 0.849.
For the sequence “GTCGACCCATGGACCGGTTTTCCCGGTAATCCGTATTTGAG (site GTCGACCCTCT)”, the “recombinant UMI read abundance (log10)” value came to 0.0157.
As for “GTCGGTCCATGGACCGGTTTTCCCGGTAATCCGTATTTGTA (site GTCGGTCCTTA)”, the “recombinant UMI read abundance (log10)” value is 0.0236.
As to “GTCGTTCCATGGACCGGTTTTCCCGGTAATCCGTATTTGGT (site GTAGTTCCTAC)”, the “recombinant UMI read abundance (log10)” value was 0.
Next, “GTCGTTCCATGGACCGGTTTTCCCGGTAATCCGTATTTGGT (site GTCGTTCCTAC)”: 0.0042; “GTCGTTCCATGGACCGGTTTTCCCGGTAATCCGTATTTGGT (site GTGGTTCCTAC)”: 0.0048; “GTCGTTCCATGGACCGGTTTTCCCGGTAATCCGTATTTGGT (site GTTGTTCCTAC)”: 0.00325.
The same measure for “GTCTGACCATGGACCGGTTTTCCCGGTAATCCGTATTTGAG (site CAGGCTGCTTA)”: 0.0145.
Next, “GTCTGCCCATGGACCGGTTTTCCCGGTAATCCGTATTTGAG (site GTCTGCCCTCT)”: 0.0162; “GTCTTACCATGGACCGGTTTTCCCGGTAATCCGTATTTGCC (site GTCTTACCTGG)”: 0; “GTCTTGACATGGACCGGTTTTCCCGGTAATCCGTATTTGTG (site GTCTTGACTCA)”: 0.296.
On to “GTCTTGTCATGGACCGGTTTTCCCGGTAATCCGTATTTGTC (site GTCTTGTCTGA)”, for which the “recombinant UMI read abundance (log10)” value was found to be 1.66.
Next, “GTGACGCCATGGACCGGTTTTCCCGGTAATCCGTATTTGAA (site GTGACGCCTTT)”: 0.0255.
Next, “GTGAGCGCATGGACCGGTTTTCCCGGTAATCCGTATTTGAG (site GTGAGCGCTCT)”: 1.68.
Next, “GTGCAGGCATGGACCGGTTTTCCCGGTAATCCGTATTTGGT (site GTGCAAGCTAC)”: 1.77.
In the case of “GTGCAGGCATGGACCGGTTTTCCCGGTAATCCGTATTTGGT (site GTGCACGCTAC)”, the “recombinant UMI read abundance (log10)” value is 0.00349.
The same measure for “GTGCAGGCATGGACCGGTTTTCCCGGTAATCCGTATTTGGT (site GTGCAGGCTAC)”: 0.659; for “GTGCAGGCATGGACCGGTTTTCCCGGTAATCCGTATTTGGT (site GTGCATGCTAC)”: 0.279.
“GTGCAGGCATGGACCGGTTTTCCCGGTAATCCGTATTTGTG (site GTGAAGGCTCA)”: the “recombinant UMI read abundance (log10)” value was found to be 1.5.
Turning to “GTGCAGGCATGGACCGGTTTTCCCGGTAATCCGTATTTGTG (site GTGCAGGCTCA)”, the “recombinant UMI read abundance (log10)” value worked out at 1.17.
Next, “GTGCAGGCATGGACCGGTTTTCCCGGTAATCCGTATTTGTG (site GTGGAGGCTCA)”: 0.393; “GTGCAGGCATGGACCGGTTTTCCCGGTAATCCGTATTTGTG (site GTGTAGGCTCA)”: 0.475; “GTGCATACATGGACCGGTTTTCCCGGTAATCCGTATTTGGT (site GTGCATACTAC)”: 1.51.
Take “GTGCATACATGGACCGGTTTTCCCGGTAATCCGTATTTGGT (site GTGCATCCTAC)”: the “recombinant UMI read abundance (log10)” value is 0.00833.
Next, “GTGCATACATGGACCGGTTTTCCCGGTAATCCGTATTTGGT (site GTGCATGCTAC)”: 0.555; “GTGCATACATGGACCGGTTTTCCCGGTAATCCGTATTTGGT (site GTGCATTCTAC)”: 0.00888.
The same measure for “GTGCATGCATGGACCGGTTTTCCCGGTAATCCGTATTTGCT (site GTGCATGCTAA)”: 0.00274; for “GTGCATGCATGGACCGGTTTTCCCGGTAATCCGTATTTGCT (site GTGCATGCTAC)”: 0; for “GTGCATGCATGGACCGGTTTTCCCGGTAATCCGTATTTGCT (site GTGCATGCTAG)”: 2.86.
The same measure for “GTGCATGCATGGACCGGTTTTCCCGGTAATCCGTATTTGCT (site GTGCATGCTAT)”: 0.999; for “GTGCCGACATGGACCGGTTTTCCCGGTAATCCGTATTTGAC (site GTGCCGACTGT)”: 2.4.
Turning to “GTGCGTGCATGGACCGGTTTTCCCGGTAATCCGTATTTGGT (site GTGCATGCTAC)”, the “recombinant UMI read abundance (log10)” value worked out at 0.26.
Next, “GTGCGTGCATGGACCGGTTTTCCCGGTAATCCGTATTTGGT (site GTGCCTGCTAC)”: 0.00736; “GTGCGTGCATGGACCGGTTTTCCCGGTAATCCGTATTTGGT (site GTGCGTGCTAC)”: 0.346; “GTGCGTGCATGGACCGGTTTTCCCGGTAATCCGTATTTGGT (site GTGCTTGCTAC)”: 0.00274.
The same measure for “GTGCTCCCATGGACCGGTTTTCCCGGTAATCCGTATTTGAC (site GTGCTCCCTGT)”: 1.9.
The same measure for “GTGGACGCATGGACCGGTTTTCCCGGTAATCCGTATTTGAG (site GTGGACGCTCT)”: 1.56; for “GTGGACGCATGGACCGGTTTTCCCGGTAATCCGTATTTGTG (site GTGGAAGCTCA)”: 1.41; for “GTGGACGCATGGACCGGTTTTCCCGGTAATCCGTATTTGTG (site GTGGACGCTCA)”: 1.56.
With “GTGGACGCATGGACCGGTTTTCCCGGTAATCCGTATTTGTG (site GTGGAGGCTCA)”, the “recombinant UMI read abundance (log10)” value stood at 0.0785.
Consider “GTGGACGCATGGACCGGTTTTCCCGGTAATCCGTATTTGTG (site GTGGATGCTCA)”, for which the “recombinant UMI read abundance (log10)” value worked out at 0.653.
Next, “GTGGAGACATGGACCGGTTTTCCCGGTAATCCGTATTTGTG (site GTGGAGACTCA)”: 1.59; “GTGGAGACATGGACCGGTTTTCCCGGTAATCCGTATTTGTG (site GTGGAGCCTCA)”: 0.0116.
